# Experimental data reported in publication PMC9810691, “Structure-guided peptide engineering of a positive allosteric modulator targeting the outer pore of TRPV1 for long-lasting analgesia” (Nature Communications, 2023).
# Several values for one entry are separate records, joined by “and”; a condition that tells them apart may be missing. Identical values can stand only once.
# Legend:
# [1] = molecular target: T1, TRPV1 (Mus musculus, UniProt Q704Y3); test: Capsaicin-induced desensitization of TRPV1 (WT) in calcium; type: cell-based, murine
# Protocol: (§1) HEK293T cells are cultured using DMEM medium contained 10% FBS in a cell incubator with 5% CO2 at 37 °C. Plasmids of murine TRPV1, TRPV2, TRPV3 and human TRPA1 are labeled with YFP or GFP as indicators for subsequent electrophysiological recordings. cDNA constructs of ion channels were transiently transfected with Lipofectamine 2000 (Invitrogen, Carlsbad, CA). And one or 2 days after transient transfection, electrophysiological recordings were performed.
# (§2) Patch-clamp recordings were carried out with a HEKA EPC10 amplifier controlled by PatchMaster software (HEKA). Patch pipettes were prepared from borosilicate glass and fire-polished to resistance of 3–8 MΩ by P-97 puller. Both bath solution and pipette solution contained 130 mM NaCl, 10 mM glucose, 0.2 mM EDTA, and 3 mM HEPES and were adjusted to pH 7.2–7.4 with NaOH for whole-cell recordings. For solution with pH lower than 6.5, HEPES was replaced by MES. Whole-cell recordings were performed at ±80 mV. Current was sampled at 10 kHz and filtered at 2.9 kHz. All recordings were performed at room temperature (25 °C). A gravity-driven system (RSC-200, Bio-Logic) with freely rotated perfusion tubes was used for the perfusion of peptide or ligands. Bath and ligand solution were delivered through separate tubes to minimize the mixing of solutions. […]
# (§3) Data from whole-cell recordings were analyzed in Igor Pro version 5.05 (WaveMatrix). […]
# [2] = molecular target: T1, TRPV1; test: Calcium imaging, HEK293T cells expressing TRPV1; type: cell-based, murine
# Protocol: as §1
# Calcium imaging assay was performed as previously described[12],[20]. In brief, HEK293T cells expressing TRPV1 were incubated with 2 μM Fluo-4 AM (Thermo Fisher) in 2 mM calcium Ringer’s solution (140 mM NaCl, 5 mM KCl, 2 mM MgCl2, 2 mM CaCl2, 10 mM glucose, and 10 mM HEPES, pH 7.4). Fluorescence images of HEK293T cells were acquired with Nikon Eclipse Ti2 microscope with optiMOS charge-coupled device camera controlled by the Ocular Software (Molecular Devices). Fluo-4 AM was excited at 500/20-nm excitation, and fluorescence emission was detected at 535/30-nm. Fluorescence images were analyzed with Fiji software and Office Excel.
# [3] = tested on: TRPV1 K604E; test: Desensitization, TRPV1 mutant K604E; type: cell-based, murine; conditions: 10 μM cap alone or + 30 μM s-RhTx; single cells; listed as cap
# Protocol: Site mutations of mTRPV1 were generated by Fast Mutagenesis Kit (Takara Bio). Primers used to generate point mutations are summarized in Supplementary Table 1. All mutations were confirmed by sequencing.
# as §2, with “solutions. Patch pipette holding cells was placed in front of the perfusion tube outlet for perfusion.” for “solutions.”
# as §3
# [4] = tested on: wildtype mice; type: in vivo
# Protocol: Adult C57 BL/6 mice (male, 8–10 weeks) and Trpv1^-/- mice (Jax Strain #:003770) were used for behavioral studies. To specifically label Trpv1-positive nerve fibers in skin tissues, Trpv1-Cre mice[36] (Jax Strain #:017769) were crossed with floxed reporter lines (Ai32, Jax Strain #:012569 or Ai14, Jax Strain #:007914) to get the transgenic reporter (Trpv1-Ai32 or Trpv1-Ai14) mice. Mice were group-housed at 22–24 °C and relative humidity of 30–70% under the 12 h light-dark cycle with access to standard food and water ad libitum. All the animal procedures were approved by the Institutional Animal Care & Use Committee (IACUC) of Zhejiang University. […]
# Spontaneous pain was measured by counting the time (s) mice spent on licking, lifting, or flinching the affected hind paws over a 10-min period after i.pl. injection.
# [5] = tested on: Trpv1+ nerve fibers, Trpv1-Ai32 / Trpv1-Ai14 mice; test: Trpv1+ intra-epidermal nerve fiber (IENF) quantification; type: in vivo; conditions: capsaicin 200 ng alone or with 2 μg peptide
# Protocol: Adult C57 BL/6 mice (male, 8–10 weeks) and Trpv1^-/- mice (Jax Strain #:003770) were used for behavioral studies. To specifically label Trpv1-positive nerve fibers in skin tissues, Trpv1-Cre mice[36] (Jax Strain #:017769) were crossed with floxed reporter lines (Ai32, Jax Strain #:012569 or Ai14, Jax Strain #:007914) to get the transgenic reporter (Trpv1-Ai32 or Trpv1-Ai14) mice. Mice were group-housed at 22–24 °C and relative humidity of 30–70% under the 12 h light-dark cycle with access to standard food and water ad libitum. All the animal procedures were approved by the Institutional Animal Care & Use Committee (IACUC) of Zhejiang University.
# After appropriate survival times, the mice were deeply anesthetized with isoflurane and perfused through the ascending aorta with PBS, followed by 4% PFA. After the perfusion, the hind paw glabrous skins and L4-L6 DRGs were removed and postfixed in the same fixative overnight. Skin sections (30 μm) and DRG sections (10 μm) were cut in a cryostat. Sections were blocked with 2% BSA for 2 h at room temperature and then incubated with Deep-red 640/660-conjugated Nissl (1:1000) at room temperature for 2 h. Sections were then incubated with DAPI (1:10,000, Vector Laboratories, catalog H-1200) for 5 min, followed by three times washing with PBS for 5 min each. The stained and mounted sections were examined with a Nikon fluorescence microscope, and images were captured with a charge-coupled device Spot camera. For quantification analysis, at least three sections from each mouse were selected, and at least three mice were analyzed in each group. To evaluate Trpv1-positive nerve fiber degeneration, transgenic reporter (Trpv1-Ai32 or Trpv1-Ai14) mice were used for the quantification of intra-epidermal nerve fiber (IENF) density. IENF density was calculated by counting the number of IENF crossing the epidermis-dermis boundary within unit length.
# [6] = tested on: CFA-induced chronic inflammatory pain model mice; test: CFA-induced heat hyperalgesia (Hargreaves test); type: in vivo; conditions: capsaicin alone (with saline) or with linear or folded s-RhTx; words
# Protocol: Thermal sensitivity was tested using a Hargreaves radiant heat apparatus (IITC Life Science) as previously reported[40],[41]. For heat hyperalgesia test in CFA model, the basal paw withdrawal latency was adjusted to 9 to 12 s, with a cutoff of 20 s to prevent tissue damage. For thermal sensitivity test, the basal paw withdrawal latency was adjusted to 4 to 6 s, with a cutoff of 10 s to prevent tissue damage. Withdrawal latency were averaged from three consecutive tests with a 5 min interval between measurements.
# [7] = tested on: CFA-induced chronic inflammatory pain model mice; type: in vivo; conditions: capsaicin alone (with saline) or with linear or folded s-RhTx; words
# Protocol: Mechanical allodynia was assessed via von Frey test as previously reported. Mice were placed in a plexiglass chamber upon the elevated metal mesh with 1 cm openings and allowed to acclimatize for 1 h. To determine mechanical thresholds of paw withdrawal, a series of von Frey filaments (0.02–2.56 g, Stoelting Co.) with increasing stiffness were used according to Dixon’s up-down method.
# T1 sequence (Q704Y3 whole entry): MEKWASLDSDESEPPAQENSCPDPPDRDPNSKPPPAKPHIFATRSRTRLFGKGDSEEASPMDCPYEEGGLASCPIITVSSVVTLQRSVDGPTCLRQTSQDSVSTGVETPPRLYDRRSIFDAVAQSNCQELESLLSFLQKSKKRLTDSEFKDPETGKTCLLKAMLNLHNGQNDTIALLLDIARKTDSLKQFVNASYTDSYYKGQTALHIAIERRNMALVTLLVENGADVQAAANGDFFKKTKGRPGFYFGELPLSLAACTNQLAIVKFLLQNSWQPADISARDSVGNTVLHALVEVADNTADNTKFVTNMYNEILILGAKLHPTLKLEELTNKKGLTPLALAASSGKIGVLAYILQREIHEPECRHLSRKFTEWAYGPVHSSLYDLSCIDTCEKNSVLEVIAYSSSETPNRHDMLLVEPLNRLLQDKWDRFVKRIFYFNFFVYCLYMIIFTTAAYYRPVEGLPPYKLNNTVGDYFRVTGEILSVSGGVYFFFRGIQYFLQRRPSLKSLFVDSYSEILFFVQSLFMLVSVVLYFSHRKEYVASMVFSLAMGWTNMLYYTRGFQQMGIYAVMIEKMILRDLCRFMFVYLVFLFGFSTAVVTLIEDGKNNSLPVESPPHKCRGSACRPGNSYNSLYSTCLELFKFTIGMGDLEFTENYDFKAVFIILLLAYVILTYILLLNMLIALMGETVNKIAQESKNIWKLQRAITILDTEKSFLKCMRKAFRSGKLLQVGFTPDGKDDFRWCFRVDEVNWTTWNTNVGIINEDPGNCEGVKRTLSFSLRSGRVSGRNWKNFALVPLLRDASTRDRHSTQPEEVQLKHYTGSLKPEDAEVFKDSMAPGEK
compound,measurement,setting,value
"COc1cc(CNC(=O)CCCC/C=C/C(C)C)ccc1O [capsaicin, Capsaicin]",AUC of desensitization (mean),[1],72.39 ± 6.61 and 39.25 ± 5.01
same,desensitization time constant tau (mean),[1],47.37 ± 6.14 s and 23.87 ± 3.97 s
same,calcium influx,[2],cannot induce discernable calcium influx
same,"desensitization time constant, K604E",[3],46.184 s and 35.399 s and 63.872 s and 58.758 s and 34.354 s and 64.15 s
same,"spontaneous pain behavior, with capsaicin","[4]; capsaicin 200 ng alone or with 2 μg peptide, i.pl., words",caused a mild spontaneous pain behavior
same,"total time of spontaneous pain within 10 min, with capsaicin","[4]; capsaicin 200 ng i.pl. alone (cap) or with 2 μg linear or folded s-RhTx, 20 μl, individual mice, listed as Cap",63.91 s and 41.04 s and 20.17 s and 30.43 s and 88.51 s and 98.54 s and 102.03 s and 29.73 s and 145.77 s
same,"IENF number, with capsaicin","[5]; individual mice, listed as Cap",11 and 9 and 12
same,"number of Trpv1+ IENF, with capsaicin",[5]; words,little effect on the number of Trpv1^+ IENF
same,effect on CFA-induced heat hyperalgesia,[6],slow recovery from heat hyperalgesia
same,effect on CFA-induced mechanical allodynia,[7],robust and prolonged mechanical allodynia
